From patent US8076338B2, “Kinase modulators and methods of use” (Exelixis, Inc., priority 2004, dated 2011)

Legend:
AktK = AktK (Homo sapiens, UniProt P31749); assay: Luciferase-coupled chemiluminescence kinase assay (ATP consumption); type: biochemical; details: read-out: AKT-1 IC50
Method in brief: (§1)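 Activity is read as ATP depletion: luciferase-luciferin reagent added after a 3 h ambient-temperature kinase reaction, with total ATP use limited to 25-60%. Before ATP addition, 2.5-5 nM kinase and compound were preincubated 30 min in Tris pH 7.5/MgCl2/TX-100/DTT buffer; […].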

p70S6K = p70S6K (Homo sapiens, UniProt P23443); assay: as above; type: biochemical
Sequence of p70S6K (P23443 whole entry): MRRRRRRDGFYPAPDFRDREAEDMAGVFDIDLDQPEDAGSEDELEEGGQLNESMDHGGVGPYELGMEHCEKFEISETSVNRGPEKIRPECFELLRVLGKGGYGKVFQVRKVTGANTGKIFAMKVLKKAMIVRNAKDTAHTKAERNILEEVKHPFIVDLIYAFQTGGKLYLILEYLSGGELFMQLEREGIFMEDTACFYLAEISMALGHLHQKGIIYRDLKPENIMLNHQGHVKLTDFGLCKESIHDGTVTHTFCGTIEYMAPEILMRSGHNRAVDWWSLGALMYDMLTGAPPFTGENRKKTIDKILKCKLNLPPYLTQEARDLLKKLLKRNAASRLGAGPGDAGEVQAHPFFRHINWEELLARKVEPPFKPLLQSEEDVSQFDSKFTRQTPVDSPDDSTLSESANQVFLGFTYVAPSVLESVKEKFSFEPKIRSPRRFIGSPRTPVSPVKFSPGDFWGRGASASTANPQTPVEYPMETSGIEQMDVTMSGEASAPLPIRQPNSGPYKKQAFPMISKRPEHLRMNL
Method in brief: as §1

Sequence of AktK (P31749 whole entry): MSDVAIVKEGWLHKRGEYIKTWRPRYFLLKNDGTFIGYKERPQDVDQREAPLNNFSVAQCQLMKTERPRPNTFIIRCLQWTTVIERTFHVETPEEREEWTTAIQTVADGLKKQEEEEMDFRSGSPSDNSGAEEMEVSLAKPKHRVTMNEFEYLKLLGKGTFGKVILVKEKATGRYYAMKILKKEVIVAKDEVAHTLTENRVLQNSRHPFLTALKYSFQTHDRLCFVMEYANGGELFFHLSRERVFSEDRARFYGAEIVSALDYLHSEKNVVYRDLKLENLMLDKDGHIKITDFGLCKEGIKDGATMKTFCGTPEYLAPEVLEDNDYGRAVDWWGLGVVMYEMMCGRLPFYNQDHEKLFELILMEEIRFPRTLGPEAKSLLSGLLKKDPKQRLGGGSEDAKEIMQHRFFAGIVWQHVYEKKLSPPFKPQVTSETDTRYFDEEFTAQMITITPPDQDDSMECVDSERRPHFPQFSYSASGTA

Work on `Fc1ccc(-c2ccc(Cl)c(N3CCN(c4ncnc5[nH]nc(Br)c45)CC3)c2)c(OCCN2CCCC2)c1` [Entry 289, 3-bromo-4-(4-{4-chloro-4′-fluoro-2′-[(2-pyrrolidin-1-ylethyl)oxy]biphenyl-3-yl}piperazin-1-yl)-1H-pyrazolo[3,4-d]pyrimidine] yielded an IC50 (AktK) of less than 0.1 µM and an IC50 (p70S6K) of less than 0.1 µM.
`Cc1c(NCCN2CCCC2)cc(OCC(F)(CF)CF)cc1N1CCN(c2ncnc3[nH]nc(/C=C/C(=O)O)c23)CC1` [Entry 291, (2E)-3-[4-(4-{5-{[2,3-difluoro-2-(fluoromethyl)pro-pyl]oxy}-2-methyl-3-[(2-pyrrolidin-1-ylethyl)a-mino]phenyl}piperazin-1-yl)-1H-pyrazolo[3,4-d]pyrimidin-3-yl]prop-2-enoic acid] was tested, and the IC50 (AktK) was less than 0.1 µM and the IC50 (p70S6K) was less than 0.1 µM.
Work on `COC(CCC(F)(F)F)(OC)c1cc(NCCN2CCCC2)c(C)c(N2CCN(c3ncnc4[nH]nc(Br)c34)CC2)c1` [Entry 292, 3-[4-(3-bromo-1H-pyrazolo[3,4-d]pyrimidin-4-yl)piperazin-1-yl]-2-methyl-N-(2-pyrrolidin-1-ylethyl)-5-[4,4,4-trifluoro-1,1-bis(methyloxy)butyl]aniline] yielded an IC50 (AktK) of less than 0.1 µM and an IC50 (p70S6K) of less than 0.1 µM.
Compound `c1ccc(N2CCN(c3ncnc4[nH]cnc34)CC2)cc1` [Entry 293, 6-(4-phenylpiperazin-1-yl)-9H-purine] has an IC50 (AktK) of no less than 10 µM and an IC50 (p70S6K) of 1 to 10 µM.
`Clc1cccc(N2CCN(c3ncnc4[nH]cnc34)CC2)c1` [Entry 294, 6-[4-(3-chlorophenyl)piperazin-1-yl]-9H-purine] gave an IC50 (AktK) of no less than 10 µM and an IC50 (p70S6K) of 0.1 to 1 µM.
Compound `c1ccc(N2CCN(c3ncnc4[nH]ccc34)CC2)cc1` [Entry 295, 4-(4-phenylpiperazin-1-yl)-7H-pyrrolo[2,3-d]pyrimidine] has an IC50 (AktK) of no less than 10 µM and an IC50 (p70S6K) of 0.1 to 1 µM.
`Clc1cccc(N2CCN(c3ncnc4[nH]ccc34)CC2)c1` [Entry 296, 4-[4-(3-chlorophenyl)piperazin-1-yl]-7H-pyrrolo[2,3-d]pyrimidine] gave an IC50 (AktK) of 1 to 10 µM and an IC50 (p70S6K) of 0.1 to 1 µM.
In the case of `c1ccc(N2CCN(c3ncnc4[nH]ncc34)CC2)cc1` [Entry 297, 4-(4-phenylpiperazin-1-yl)-1H-pyrazolo[3,4-d]pyrimidine], the IC50 (AktK) is reported as no less than 10 µM and the IC50 (p70S6K) is reported as 0.1 to 1 µM.
For `Clc1cccc(N2CCN(c3ncnc4[nH]ncc34)CC2)c1` [Entry 298, 4-[4-(3-chlorophenyl)piperazin-1-yl]-1H-pyrazolo[3,4-d]pyrimidine], the IC50 (AktK) was no less than 10 µM and the IC50 (p70S6K) was 0.1 to 1 µM.
Compound `Clc1ccccc1N1CCN(c2ncnc3[nH]cnc23)CC1` [Entry 299, 6-[4-(2-chlorophenyl)piperazin-1-yl]-9H-purine] has an IC50 (AktK) of no less than 10 µM and an IC50 (p70S6K) of 1 to 10 µM.
In the case of `Fc1ccccc1N1CCN(c2ncnc3[nH]cnc23)CC1` [Entry 300, 6-[4-(2-fluorophenyl)piperazin-1-yl]-9H-purine], the IC50 (AktK) is reported as no less than 10 µM and the IC50 (p70S6K) is reported as 1 to 10 µM.
`Cc1ccccc1N1CCN(c2ncnc3[nH]ccc23)CC1` [Entry 301, 4-[4-(2-methylphenyl)piperazin-1-yl]-7H-pyrrolo[2,3-d]pyrimidine] was tested, and the IC50 (AktK) was no less than 10 µM and the IC50 (p70S6K) was 0.1 to 1 µM.
Compound `COc1ccccc1N1CCN(c2ncnc3[nH]ccc23)CC1` [Entry 302, 4-{4-[2-(methyloxy)phenyl]piperazin-1-yl}-7H-pyrrolo[2,3-d]pyrimidine] has an IC50 (AktK) of no less than 10 µM and an IC50 (p70S6K) of 0.1 to 1 µM.
For `COc1cccc(N2CCN(c3ncnc4[nH]ccc34)CC2)c1` [Entry 303, 4-{4-[3-(methyloxy)phenyl]piperazin-1-yl}-7H-pyrrolo[2,3-d]pyrimidine], the IC50 (AktK) was no less than 10 µM and the IC50 (p70S6K) was 0.1 to 1 µM.
`COc1ccc(N2CCN(c3ncnc4[nH]ccc34)CC2)cc1` [Entry 304, 4-{4-[4-(methyloxy)phenyl]piperazin-1-yl}-7H-pyrrolo[2,3-d]pyrimidine] was tested, and the IC50 (AktK) was no less than 10 µM and the IC50 (p70S6K) was 1 to 10 µM.
Work on `FC(F)(F)c1cccc(N2CCN(c3ncnc4[nH]ccc34)CC2)c1` [Entry 305, 4-{4-[3-(trifluoromethyl)phenyl]piperazin-1-yl}-7H-pyrrolo[2,3-d]pyrimidine] yielded an IC50 (AktK) of no less than 10 µM and an IC50 (p70S6K) of 0.1 to 1 µM.
